Experimental data from US12195427B2, “MASP-2 inhibitors and methods of use” (priority 2018, dated 2025).

Target: MASP-2 CCP2-SP (Homo sapiens (Human), UniProt O00187)
Assay: MASP-2 co-crystallization, X-ray crystallography and structure analysis (H-bonds, van der Waals contacts);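 on Ligand-pharmacophore element distance, pharmacophore element C2: distance from averaged pharmacophore element to bound ligand; missing value means element absent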;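 on Ligand-pharmacophore element distance, pharmacophore element C3: distance from averaged pharmacophore element to bound ligand; missing value means element absent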;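 on Ligand-pharmacophore element distance, pharmacophore element C4: distance from averaged pharmacophore element to bound ligand; missing value means element absent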;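 on Ligand-pharmacophore element distance, pharmacophore element C5: distance from averaged pharmacophore element to bound ligand; missing value means element absent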
Design: van der Waals contact distance, MASP-2 HIS 483 atom CD2 / van der Waals contact distance, MASP-2 HIS 483 atom NE2 / van der Waals contact distance, SER 654 C to compound atom / van der Waals contact distance, SER 654 O to compound atom / van der Waals contact distance, TRP 655 C to compound atom / van der Waals contact distance, MASP-2 GLY 528 atom CA / van der Waals contact distance TRP 655 atom CZ3 / van der Waals contact distance TRP 655 atom N / van der Waals contact distance TRP 655 atom CE3 / van der Waals contact distance GLY 656 atom C / van der Waals contact distance GLY 656 atom CA / van der Waals contact distance GLY 656 atom O / van der Waals contact distance, MASP-2 TYR 607 atom CD1 / van der Waals contact distance, MASP-2 PRO 606 atom O / d(C3,CA1) / d(CA1,N1)2 / d(H4,O1) / d(H4,O2) / d(O1,O2) / d(CA1,O2) / d(CA6,O1) / d(CA6,O2) / d(CA1,C5) / d(O2,H3) / d(N2,C2) / d(CA5,N2) / d(N2,C4) / d(N2,C6) / d(N2,CA3) / d(N2,O3) / d(O4,H2): unit not given beside the values
Settings: for Ligand-pharmacophore element distance, pharmacophore element C2 / Ligand-pharmacophore element distance, pharmacophore element C3 / Ligand-pharmacophore element distance, pharmacophore element C4 / Ligand-pharmacophore element distance, pharmacophore element C5 / Ligand-pharmacophore element distance, pharmacophore element C6 / Ligand-pharmacophore element distance, pharmacophore element C7 / Ligand-pharmacophore element distance, pharmacophore element CA1 / Ligand-pharmacophore element distance, pharmacophore element CA2 / Ligand-pharmacophore element distance, pharmacophore element CA3 / Ligand-pharmacophore element distance, pharmacophore element CA4 / Ligand-pharmacophore element distance, pharmacophore element CA5 / Ligand-pharmacophore element distance, pharmacophore element CA6: Table A4-1; for d(C3,CA1) / d(CA1,N1)2 / d(CA1,O1) / d(CA1,O2) / d(H4,O1) / d(H4,O2) / d(O1,O2) / d(CA1,N1): Table A5-1 pharmacophore: distance between elements, S2/S1 region; for d(N2,C2) / d(N2,CA2) / d(O2,H3) / d(O2,N2): Table A5-2 pharmacophore distance, S3/S4 region; for a(C3, CA1, O1) / a(CA1, O1, O2) / a(O1, O2, H4) / a(N1, CA1, O1) b) / A(N1, CA1, O1) a): Table A6-1 pharmacophore angle; for a(N1, CA1, O1) b): Methyl-amino-pyridine compounds; for a(O1, O2, H3) / a(O1, O2, N2) / a(O2, N2, C2) / a(O2, N2, CA2): Table A6-2 pharmacophore angle; for Pharmacophore torsion angle a(C3, CA1, O1, H4) / Pharmacophore torsion angle a(H4, O1, O2, H3) / Pharmacophore torsion angle a(H4, O1, O2, N2) / Pharmacophore torsion angle a(N1, CA1, O1, H4) / Pharmacophore torsion angle a(O1, H4, O2, CA1) / Pharmacophore torsion angle a(O1, O2, N2, C2) / Pharmacophore torsion angle a(N1, CA1, O2, H4): Table A7-1; for Pharmacophore torsion angle a(C3, CA1, O1, H4) / Pharmacophore torsion angle a(H4, O1, O2, H3) / Pharmacophore torsion angle a(H4, O1, O2, N2) / Pharmacophore torsion angle a(N1, CA1, O1, H4) / Pharmacophore torsion angle a(O1, H4, O2, CA1) / Pharmacophore torsion angle a(O1, O2, N2, C2) / Pharmacophore torsion angle a(O1, O2, N2, CA2) / Pharmacophore torsion angle a(O1, O2, N2, CA4) / Pharmacophore torsion angle a(N1, CA1, O2, H4): between pharmacophore elements of the bound compound; for Pharmacophore torsion angle a(O1, O2, N2, CA2) / Pharmacophore torsion angle a(O1, O2, N2, CA4): Table A7-2; for A(N1, CA1, O1) a): all compounds with protonatable center N1 except Methyl-amino-pyridine
Method in brief: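 Inhibitor complexes were obtained by soaking crystals of E. coli-derived human MASP-2 CCP2-SP. Synchrotron diffraction at 1.0 wavelength, molecular replacement and partial refinement gave the models; one pose per ligand was chosen for contact analysis.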

MASP-2 CCP2-SP, sequence (O00187 445-686): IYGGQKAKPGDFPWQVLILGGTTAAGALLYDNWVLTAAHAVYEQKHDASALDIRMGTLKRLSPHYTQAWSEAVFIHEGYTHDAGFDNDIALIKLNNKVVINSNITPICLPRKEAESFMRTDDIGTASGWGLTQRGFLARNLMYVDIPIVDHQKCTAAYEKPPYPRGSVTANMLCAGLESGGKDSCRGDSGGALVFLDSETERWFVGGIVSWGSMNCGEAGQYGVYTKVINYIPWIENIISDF
MASP-2 CCP2-SP, sequence (O00187 364-432 partner): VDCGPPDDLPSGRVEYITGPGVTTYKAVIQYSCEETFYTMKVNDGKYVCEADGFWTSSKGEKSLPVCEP

Cc1nc(N)ccc1CNC(=O)[C@H](C)NC(=O)[C@H]1C[C@@H](c2cccc3ccccc23)CCN1.Cl.Cl [1297_4]
Ligand-pharmacophore element distance, pharmacophore element C2: 0.31 | Ligand-pharmacophore element distance, pharmacophore element C3: 0.18 | Ligand-pharmacophore element distance, pharmacophore element C4: 0 | Ligand-pharmacophore element distance, pharmacophore element C5: 0 | Ligand-pharmacophore element distance, pharmacophore element C6: 0 | Ligand-pharmacophore element distance, pharmacophore element C7: 0 | Ligand-pharmacophore element distance, pharmacophore element CA1: 0.48 | Ligand-pharmacophore element distance, pharmacophore element CA2: 0.24 | Ligand-pharmacophore element distance, pharmacophore element CA3: 0 | Ligand-pharmacophore element distance, pharmacophore element CA4: 0.98 | Ligand-pharmacophore element distance, pharmacophore element CA5: 0 | Ligand-pharmacophore element distance, pharmacophore element CA6: 0 | d(C3,CA1): 2.87 | d(CA1,N1)2: 1.37 | d(CA1,O1): 4.44 | d(CA1,O2): 3.67 | d(H4,O1): 4.35 | d(H4,O2): 3.67 | d(O1,O2): 3.50 | d(N2,C2): 1.47 | d(N2,CA2): 5.72 | d(O2,H3): 4.02 | d(O2,N2): 2.76 | a(C3, CA1, O1): 149.60 | a(CA1, O1, O2): 103.60 | a(O1, O2, H4): 129.06 | a(N1, CA1, O1) b): 174.41 | a(O1, O2, H3): 145.24 | a(O1, O2, N2): 143.80 | a(O2, N2, C2): 131.10 | a(O2, N2, CA2): 156.08 | Pharmacophore torsion angle a(C3, CA1, O1, H4): 28.23 | Pharmacophore torsion angle a(H4, O1, O2, H3): 51.40 | Pharmacophore torsion angle a(H4, O1, O2, N2): 142.36 | Pharmacophore torsion angle a(N1, CA1, O1, H4): 26.25 | Pharmacophore torsion angle a(O1, H4, O2, CA1): −89.51 | Pharmacophore torsion angle a(O1, O2, N2, C2): 110.29 | Pharmacophore torsion angle a(O1, O2, N2, CA2): 126.11 | Pharmacophore torsion angle a(O1, O2, N2, CA4): 105.94

Cc1nc(N)ccc1CNC(=O)[C@H](C)NC(=O)[C@H]1C[C@@H](c2cccc3ccccc23)CCN1.Cl.Cl [1297_5]
Ligand-pharmacophore element distance, pharmacophore element C2: 0.24 | Ligand-pharmacophore element distance, pharmacophore element C3: 0.29 | Ligand-pharmacophore element distance, pharmacophore element C4: 0 | Ligand-pharmacophore element distance, pharmacophore element C5: 0 | Ligand-pharmacophore element distance, pharmacophore element C6: 0 | Ligand-pharmacophore element distance, pharmacophore element C7: 0 | Ligand-pharmacophore element distance, pharmacophore element CA1: 0.44 | Ligand-pharmacophore element distance, pharmacophore element CA2: 0.07 | Ligand-pharmacophore element distance, pharmacophore element CA3: 0 | Ligand-pharmacophore element distance, pharmacophore element CA4: 1.22 | Ligand-pharmacophore element distance, pharmacophore element CA5: 0 | Ligand-pharmacophore element distance, pharmacophore element CA6: 0 | d(C3,CA1): 2.86 | d(CA1,N1)2: 1.38 | d(CA1,O1): 4.59 | d(CA1,O2): 3.88 | d(H4,O1): 4.56 | d(H4,O2): 3.82 | d(O1,O2): 3.43 | d(N2,C2): 1.43 | d(N2,CA2): 5.69 | d(O2,H3): 4.06 | d(O2,N2): 2.67 | a(C3, CA1, O1): 150.41 | a(CA1, O1, O2): 102.43 | a(O1, O2, H4): 132.64 | a(N1, CA1, O1) b): 174.11 | a(O1, O2, H3): 146.79 | a(O1, O2, N2): 147.10 | a(O2, N2, C2): 132.77 | a(O2, N2, CA2): 157.05 | Pharmacophore torsion angle a(C3, CA1, O1, H4): 30.12 | Pharmacophore torsion angle a(H4, O1, O2, H3): 47.86 | Pharmacophore torsion angle a(H4, O1, O2, N2): 144.38 | Pharmacophore torsion angle a(N1, CA1, O1, H4): 10.41 | Pharmacophore torsion angle a(O1, H4, O2, CA1): −86.41 | Pharmacophore torsion angle a(O1, O2, N2, C2): 111.81 | Pharmacophore torsion angle a(O1, O2, N2, CA2): 122.50 | Pharmacophore torsion angle a(O1, O2, N2, CA4): 101.00

Cc1nc(N)ccc1CNC(=O)C(C)NC(=O)C1CC(c2cccc3ccccc23)CCN1.Cl.Cl (stereo not shown) [1297_6]
Ligand-pharmacophore element distance, pharmacophore element C2: 0.33 | Ligand-pharmacophore element distance, pharmacophore element C3: 0.4 | Ligand-pharmacophore element distance, pharmacophore element C4: 0 | Ligand-pharmacophore element distance, pharmacophore element C5: 0 | Ligand-pharmacophore element distance, pharmacophore element C6: 0 | Ligand-pharmacophore element distance, pharmacophore element C7: 0 | Ligand-pharmacophore element distance, pharmacophore element CA1: 0.36 | Ligand-pharmacophore element distance, pharmacophore element CA2: 0.24 | Ligand-pharmacophore element distance, pharmacophore element CA3: 0 | Ligand-pharmacophore element distance, pharmacophore element CA4: 1.14 | Ligand-pharmacophore element distance, pharmacophore element CA5: 0 | Ligand-pharmacophore element distance, pharmacophore element CA6: 0 | d(C3,CA1): 2.86 | d(CA1,N1)2: 1.38 | d(CA1,O1): 4.73 | d(CA1,O2): 4.23 | d(H4,O1): 4.65 | d(H4,O2): 4.26 | d(O1,O2): 3.53 | d(N2,C2): 1.44 | d(N2,CA2): 5.72 | d(O2,H3): 4.15 | d(O2,N2): 2.83 | a(C3, CA1, O1): 150.35 | a(CA1, O1, O2): 105.49 | a(O1, O2, H4): 133.61 | a(N1, CA1, O1) b): 173.49 | a(O1, O2, H3): 144.79 | a(O1, O2, N2): 141.32 | a(O2, N2, C2): 116.76 | a(O2, N2, CA2): 154.05 | Pharmacophore torsion angle a(C3, CA1, O1, H4): 27.46 | Pharmacophore torsion angle a(H4, O1, O2, H3): 43.22 | Pharmacophore torsion angle a(H4, O1, O2, N2): 150.19 | Pharmacophore torsion angle a(N1, CA1, O1, H4): 5.20 | Pharmacophore torsion angle a(O1, H4, O2, CA1): −89.84 | Pharmacophore torsion angle a(O1, O2, N2, C2): 132.97 | Pharmacophore torsion angle a(O1, O2, N2, CA2): 131.04 | Pharmacophore torsion angle a(O1, O2, N2, CA4): 109.63

C[C@H](NC(=O)[C@H]1C[C@H](Cc2ccccc2)CN1)C(=O)NCc1ccc(C(=N)N)cc1.Cl.Cl [1306_1]
Ligand-pharmacophore element distance, pharmacophore element C2: 0 | Ligand-pharmacophore element distance, pharmacophore element C3: 0 | Ligand-pharmacophore element distance, pharmacophore element C4: 0 | Ligand-pharmacophore element distance, pharmacophore element C5: 0 | Ligand-pharmacophore element distance, pharmacophore element C6: 0 | Ligand-pharmacophore element distance, pharmacophore element C7: 0 | Ligand-pharmacophore element distance, pharmacophore element CA1: 0.05 | Ligand-pharmacophore element distance, pharmacophore element CA2: 0.6 | Ligand-pharmacophore element distance, pharmacophore element CA3: 0 | Ligand-pharmacophore element distance, pharmacophore element CA4: 0 | Ligand-pharmacophore element distance, pharmacophore element CA5: 0 | Ligand-pharmacophore element distance, pharmacophore element CA6: 0 | d(CA1,N1): 3.54 | d(CA1,O1): 4.38 | d(CA1,O2): 4.22 | d(H4,O1): 4.25 | d(H4,O2): 5.09 | d(O1,O2): 3.06 | d(N2,CA2): 6.06 | d(O2,H3): 5.26 | d(O2,N2): 2.66 | a(CA1, O1, O2): 107.94 | a(O1, O2, H4): 143.05 | A(N1, CA1, O1) a): 158.44 | a(O1, O2, H3): 152.11 | a(O1, O2, N2): 135.46 | a(O2, N2, CA2): 155.89 | Pharmacophore torsion angle a(H4, O1, O2, H3): 36.21 | Pharmacophore torsion angle a(H4, O1, O2, N2): 120.80 | Pharmacophore torsion angle a(N1, CA1, O2, H4): 106.51 | Pharmacophore torsion angle a(O1, H4, O2, CA1): −170.32 | Pharmacophore torsion angle a(O1, O2, N2, CA2): 136.58

C[C@H](NC(=O)[C@H]1C[C@H](Cc2ccccc2)CN1)C(=O)NCc1ccc(C(=N)N)cc1.Cl.Cl [1306_2]
Ligand-pharmacophore element distance, pharmacophore element C2: 0 | Ligand-pharmacophore element distance, pharmacophore element C3: 0 | Ligand-pharmacophore element distance, pharmacophore element C4: 0 | Ligand-pharmacophore element distance, pharmacophore element C5: 0 | Ligand-pharmacophore element distance, pharmacophore element C6: 0 | Ligand-pharmacophore element distance, pharmacophore element C7: 0 | Ligand-pharmacophore element distance, pharmacophore element CA1: 0.74 | Ligand-pharmacophore element distance, pharmacophore element CA2: 1.14 | Ligand-pharmacophore element distance, pharmacophore element CA3: 0 | Ligand-pharmacophore element distance, pharmacophore element CA4: 0 | Ligand-pharmacophore element distance, pharmacophore element CA5: 0 | Ligand-pharmacophore element distance, pharmacophore element CA6: 0 | d(CA1,N1): 3.60 | d(CA1,O1): 3.99 | d(CA1,O2): 4.29 | d(H4,O1): 6.07 | d(H4,O2): 5.71 | d(O1,O2): 2.68 | d(N2,CA2): 6.15 | d(O2,H3): 4.46 | d(O2,N2): 2.71 | a(CA1, O1, O2): 114.80 | a(O1, O2, H4): 153.92 | A(N1, CA1, O1) a): 161.00 | a(O1, O2, H3): 151.24 | a(O1, O2, N2): 153.80 | a(O2, N2, CA2): 158.08 | Pharmacophore torsion angle a(H4, O1, O2, H3): 40.51 | Pharmacophore torsion angle a(H4, O1, O2, N2): 134.08 | Pharmacophore torsion angle a(N1, CA1, O2, H4): −77.87 | Pharmacophore torsion angle a(O1, H4, O2, CA1): −12.97 | Pharmacophore torsion angle a(O1, O2, N2, CA2): 124.98
